Reference: publication PMC11369183, “PARP inhibition with rucaparib alone followed by combination with atezolizumab: Phase Ib COUPLET clinical study in advanced gynaecological and triple-negative breast cancers” (British Journal of Cancer, 2024)
Like-named read-outs stand apart in the source and are kept apart here.

Tests used:
[1] = tested on: ovarian cancer, patients with measurable disease; set-up: method as in PMID 32073956; conditions: olaparib alone; cited from earlier work
cGAS-STING pathway = assay: RNA sequencing signature in longitudinal tumour biopsies: cGAS-STING; type: in vivo, human; conditions: during rucaparib run-in, in four of five responders
Description: (§1) All patients (Parts 1 and 2) were required to have sufficient archival formalin-fixed paraffin-embedded (FFPE) tumour tissue available for planned analyses. […] A further biopsy at disease progression was optional. Tumour and biomarker characteristics are described according to central review result. However, patients could be enrolled or assigned to a cohort based on local test results, to avoid delaying treatment initiation. […] Patients were ineligible if they had previously received treatment with a PARPi, CD137 agonist, or other ICI (including but not limited to anti-PD-1, anti-PD-L1, and anti-CTLA-4 therapeutic antibodies). […] RNA sequencing reads were first aligned to ribosomal RNA sequences to remove ribosomal reads. The remaining reads were aligned to the human reference genome (National Center for Biotechnology Information Build 38) using Genomic Short-read Nucleotide Alignment Program (GSNAP) version 2013-11-01. To quantify gene expression levels, the number of reads mapped to the exons of each RefSeq gene was calculated using the functionality provided by the R/Bioconductor package GenomicAlignments. For each cohort, raw counts for genes were trimmed mean of M-values (TMM)-normalised based on size factors as calculated with CalcNormFactors in the edgeR package. […]

[2] = tested on: CD8 T-cell activity signature; assay: RNA sequencing signature in longitudinal tumour biopsies: CD8 T-cell activity; type: in vivo, human; conditions: during rucaparib run-in, in four of five responders
Description: as §1

CD274 (PD-L1 gene) = assay: RNA sequencing in longitudinal tumour biopsies: CD274; type: in vivo, human; conditions: after rucaparib run-in, responders (not in non-responders)
Description: as §1

Apoptosis signature = assay: RNA sequencing signature in longitudinal tumour biopsies: apoptosis; type: in vivo, human; conditions: during run-in, responding patients
Description: as §1

clinical = assay: clinical; set-up: species or system human; conditions: in vivo; for Cmax: female
Description: (§2) No formal statistical analyses were planned.

[3] = Description: The primary objective was to evaluate the safety and tolerability of the combination by identifying dose-limiting toxicities (DLTs; Supplementary Table 1) that determined the maximum tolerated dose and identifying a potential recommended dose and schedule for subsequent assessments. Safety endpoints included the incidence, nature, and severity of adverse events (AEs) and DLTs according to National Cancer Institute Common Terminology Criteria for Adverse Events version 4.03. Secondary efficacy endpoints comprised objective response rate (ORR) according to Response Evaluation Criteria in Solid Tumours (RECIST) version 1.1, duration of response, progression-free survival (PFS) according to RECIST version 1.1, and overall survival (OS). The PK objective was to determine the PK of rucaparib and atezolizumab combination therapy in plasma and serum, with pre-specified parameters including steady-state maximum concentration observed (Cmax), time to maximum concentration (Tmax), and area under the concentration–time curve (AUC) for rucaparib and serum concentration of atezolizumab in Part 1, and minimum concentration during the dosing interval or trough concentration (Cmin) of rucaparib and serum concentration of atezolizumab in Part 2. The incidence of antidrug antibodies (ADAs) to atezolizumab was an additional secondary endpoint. The study also included pre-specified exploratory biomarker objectives: to evaluate predictive and pharmacodynamic biomarkers of response or resistance to combined rucaparib and atezolizumab therapy in tumour biopsies and blood; and to evaluate additional biomarkers of HRD and novel biomarkers and correlate them with response and/or clinical outcome, including efficacy and safety. No formal statistical analyses were planned.
In Part 1 (dose-finding phase), patients with histologically confirmed ovarian or endometrial cancer who had received at least one prior line of therapy for metastatic disease received varying doses of oral rucaparib (400 mg twice daily in the first cohort, 600 mg twice daily in the second cohort, decreasing to 500 mg in the third cohort if necessary) in combination with a fixed dose of intravenous atezolizumab 1200 mg on Day 1. Cycles were repeated every 21 days and continued until unacceptable toxicity or disease progression if, in the investigator’s opinion, the patient would not derive clinical benefit from continued study treatment. It was planned to enroll ~six to 18 patients in up to three dose cohorts. […] In Part 2 (dose-expansion phase), the recommended Phase II dose was evaluated further for safety, PK, and preliminary activity in two tumour-specific expansion cohorts with an initially targeted enrollment of up to ~50 patients in total. In Cohort 1, eligible patients had platinum-sensitive high-grade serous or grade 3 endometrioid epithelial ovarian, fallopian tube, or primary peritoneal cancer with tumours harbouring a deleterious germline or somatic BRCA mutation (tBRCAmut, Arm A) or a tBRCA-like molecular signature (tBRCA-wild type [wt]/loss of heterozygosity [LOH]high, Arm B). Patients had received one to two prior platinum-containing regimens, with progression >6 months after the last dose of the most recent platinum therapy. In Cohort 2 (Arm C), patients had tBRCAmut or tBRCAwt/LOHhigh TNBC and had received at least one prior line of chemotherapy (without cancer immunotherapy) in the metastatic setting. Part 2 treatment comprised a 21-day run-in period of single-agent rucaparib at the identified recommended rucaparib starting dose (run-in), followed by rucaparib in combination with intravenous atezolizumab 1200 mg on Day 1 (combination). Cycles were repeated every 21 days.

[4] = tested on: DNA damage repair signature; assay: RNA sequencing signature in longitudinal tumour biopsies: DDR; type: in vivo, human; conditions: after the rucaparib run-in
Description: as §1

[5] = tested on: antidrug antibodies (ADAs) to atezolizumab; assay: Incidence of antidrug antibodies (ADAs) to atezolizumab; type: in vivo, human; conditions: one of 28 patients evaluable for ADA
Description: as §2

[6] = Atezolizumab serum concentration (sparse PK sampling); type: in vivo
Description: as §2

[7] = Part 2 TNBC Arm C, n = 5, run-in
[8] = Part 2 ovarian cancer Arms A + B, n = 14, run-in
[9] = Cycle 1 arithmetic mean (CV), sparse PK sampling, Part 2 ovarian cancer Arm B (tBRCAwt/LOHhigh), n = 4

Compound: O=C(c1cc(Cc2n[nH]c(=O)c3ccccc23)ccc1F)N1CCN(C(=O)C2CC2)CC1 [olaparib]
- ORR [1]: 72%

Compound: CNCc1ccc(-c2[nH]c3cc(F)cc4c3c2CCNC4=O)cc1 [rucaparib]
- Increase in cGAS-STING pathway activation (cGAS-STING pathway): > 100%
- Increase in CD8 + T-cell activity [2]: > 50%
- Patients with increased CD274 expression (CD274 (PD-L1 gene)): three of five
- Patients with increased apoptosis signature expression (Apoptosis signature): three of five
- Cmax (clinical; human, 400 mg): 2270 ng/mL
- Cmax (clinical; human, 600 mg): 3180 ng/mL
- Inter-individual variability in exposure, AUC (clinical; human): 21.2–41.6%
- Inter-individual variability in exposure, Cmax (clinical; human): 27.4–46.8%
- Inter-individual variability in exposure, Cmin (clinical; human): 28.6–88.7%
- Tmax (clinical; human): 1.5 to 6 h
- Rucaparib AUClast (clinical; human, 400 mg): (n = 2) 15 072 (21.2) h·ng/mL
- Rucaparib AUClast (clinical; human, 600 mg): (n = 6) 22 082 (41.6) h·ng/mL
- Rucaparib Cmin (clinical; human, 21 days): (n = 5) 1180 (52.5) ng/mL
- Dose proportionality of kinetics (clinical): dose-proportional kinetics
- Grade 5 AE [3, 7]: 0 n (%)
- Grade 5 AE [3, 8]: 0 n (%)
- AE leading to treatment modification/interruption: Rucaparib ([3]; human, in vivo): 1 (20) n (%)
- AE leading to treatment discontinuation ([3]; human, in vivo, 21 days): 0 n (%)
- AE leading to treatment modification/interruption ([3]; human, in vivo, 21 days): 1 (20) n (%)
- AE leading to treatment modification/interruption: Rucaparib ([3]; human, in vivo, 21 days): 1 (20) n (%)
- Any grade AE ([3]; human, in vivo, 21 days): 5 (100) n (%)
- Grade 3/4 AE ([3]; human, in vivo, 21 days): 2 (40) n (%)
- Treatment-related AE ([3]; human, in vivo, 21 days): 4 (80) n (%)
- Patients with decreased DDR signature ([4]; non-responders (by <10%)): one of four
- Patients with decreased DDR signature ([4]; responders): four of five

Compound: atezolizumab
- Patients positive for treatment-emergent ADAs [5]: 4%
- Atezolizumab Cmin ([6]; Cycle 1 arithmetic mean (CV), sparse PK sampling, Part 1 Cohort 1, n = 3): (n = 3) 84.3 (32.0) μg/mL
- Atezolizumab Cmin ([6]; Cycle 1 arithmetic mean (CV), sparse PK sampling, Part 1 Cohort 2, n = 5): (n = 5) 96.0 (23.8) μg/mL
- Atezolizumab Cmin ([6]; Cycle 1 arithmetic mean (CV), sparse PK sampling, Part 2 TNBC Arm C, n = 4): (n = 4) 98.7 (26.3) μg/mL
- Atezolizumab Cmin ([6]; Cycle 1 arithmetic mean (CV), sparse PK sampling, Part 2 ovarian cancer Arm A (tBRCAmut), n = 10): (n = 10) 77.2 (22.1) μg/mL
- Atezolizumab Cmax [6, 9]: (n = 4) 438 (9.4) μg/mL
- Atezolizumab Cmin [6, 9]: (n = 4) 95.7 (17.9) μg/mL
- Trough concentrations (Ctrough) ([6]; all trough concentrations exceeded the target concentration for maximal receptor occupancy): > 6000 ng/mL
- Inter-patient variability, Cmax ([6]; atezolizumab): 7.0–35.3%
- Inter-patient variability, Cmin ([6]; atezolizumab): 17.9–32.0%
- AE leading to treatment modification/interruption: Atezolizumab ([3]; Part 1 Cohort 1 (rucaparib 400 mg), n = 3): 1 (33) n (%)
- AE leading to treatment modification/interruption: Atezolizumab ([3]; Part 1 Cohort 2 (rucaparib 600 mg), n = 6): 1 (17) n (%)
- AE leading to treatment modification/interruption: Atezolizumab ([3]; Part 2 TNBC Arm C, n = 5, post run-in): 1 (20) n (%)
- AE leading to treatment modification/interruption: Atezolizumab [3, 7]: 0 n (%)
- AE leading to treatment modification/interruption: Atezolizumab ([3]; Part 2 ovarian cancer Arms A + B, n = 14, post run-in): 5 (36) n (%)
- AE leading to treatment modification/interruption: Atezolizumab [3, 8]: 0 n (%)
